Assays:
[1] = tested on: ileo-rectal anastomosed piglets; test: ileal apparent digestibility of nitrogen, energy and amino acids in ileo-rectal anastomosed piglets; assay type: in vivo, Large White×Landrace×Piétrain piglets; settings: for ileal apparent lysine digestibility / ileal apparent threonine digestibility: mean ± σ
Description: Ten Large White×Landrace×Piétrain piglets were used. The animals were obtained from the GAEC Leclerc, F-68150 Ostheim and were 60 days old at the beginning of the experiment.
Each animal was subjected to an ileo-rectal anastomosis according to the techniques described by Laplace et al. (1994). After surgery piglets were housed individually in stainless-steel metabolic cages in an animal room under controlled temperature (22° C.), humidity (50%), ventilation (1100 m3/h) and lighting (12 hours light/12 hours darkness cycle). […] Meanwhile they were fed ad libitum a vegetal based diet for piglets and had free access to tap water.
During the experimental period, piglets were fed each and alternatively the vegetal based diet supplemented or not with 0.5% benzoic acid.
An indigestible tracer, chromium oxide, was added at a concentration of 0.4% to all the diets in order to measure ileal apparent digestibility.
The experience was composed of 2 periods of 12 days each divided in 10 adaptation days and in 2 ileal content sampling days.
Each animal was fed alternatively with each diet, so that each diet was tested 10 times.
For the digestibility estimations, samples of ileal content were collected daily, during the 2 sampling days, from 8 AM to 3 PM, as soon as they were produced. Immediately after each sampling, the collected contents were weighed and frozen at −80° C. All the daily samples from the same piglet were bulked. Before analysis the samples were freeze dried and grounded to a fine powder. A total of […] samples were obtained for each diet.
The dry matter contents of the freeze-dried samples were determined after drying overnight at 105° C., 20 g of the diets and 15 g of the ileal samples, according to the standard Association of Official Analytical Chemists (AOAC) procedure (1990).
The diets and ileal samples chromium oxide levels were determined by inductively coupled plasma-atomic emission spectrometry (ICP) after mineralization at 350° C. during 20 min with oxidant reagent.
Total energy levels were determined on the freeze-dried diets and ileal contents using a calorimeter IKA C7000.
Total nitrogen concentrations were determined on the freeze-dried diets and ileal contents using a nitrogen analyzer LECO FP-428.
Total amino acids were determined after an acidic hydrolysis on the freeze-dried diets and intestinal contents. Tryptophan analysis was omitted. Cys and Met were analyzed as cysteic acid and methionine sulfone after oxidation with formic acid and hydrogen peroxide followed by an acidic hydrolysis at 110° C. with 6 N HCl. All the other amino acids were analyzed after an acidic hydrolysis at 110° C. with 6 N HCl.
Individual amino acid concentrations were measured after derivation using Waters AccQ.Fluor reagent and quantified by reversed-phase HPLC by fluorescence detection after elution on a Pico.Tag C18 column.
Correcting with the dry matter, the chromium oxide and the diet tested parameter concentrations, all the tested parameter levels of the freeze-dried ileal contents were expressed in % apparent digestibility using the following formula:
[formula] • Ci=parameter concentration (% dry matter) in the ileal content • Cd=parameter concentration (% dry matter) in the diet • Mi=chromium oxide concentration (% dry matter) in the ileal content • Md=chromium oxide concentration (% dry matter) in the diet
For each test group, statistic analysis of the data involved the calculation of the mean and standard deviation of the mean as well as an analysis of variance followed by Student's “t” test to assess the significance of group differences between group A and benzoic acid supplemented group B for a probability of 10% for the amino acids and 5% for nitrogen and energy.

[2] = tested on: piglets; test: animal health status controlled daily during the feeding trial; assay type: in vivo, Large White×Landrace×Piétrain piglets; settings: piglets fed alternately diet with or without 0.5% benzoic acid, 2 periods of 12 days
Source text: The animal health status was controlled daily.
At the beginning of the study all the piglets had recovered from the anesthesia and the surgery. […] All the feedings and all the sampling could be achieved.

[3] = 0.5% benzoic acid in diet vs non-supplemented diet, statistically non-significant (p<0.10)
[4] = 0.5% benzoic acid in diet vs non-supplemented diet, statistically significant (p<0.05)
[5] = 0.5% benzoic acid in diet vs non-supplemented diet, statistically significant (p<0.10)
[6] = piglets, Benzoic acid 0.5% in diet
[7] = piglets, diet supplemented with 0.5% benzoic acid, mean ± SD
[8] = piglets, diet supplemented with 0.5% benzoic acid
[9] = piglets, diet supplemented with 0.5% benzoic acid, listed as Benzoic acid

Q: With `O=C(O)c1ccccc1` [benzoic acid] as the compound, how does the “increase of ileal apparent sulfured amino acids digestibility compared to the control group” value [1, 3] read?
A: 2.9%

Q: And the “increase of ileal apparent threonine digestibility compared to the control group” value [1, 3]?
A: 2.7%

Q: What about the “increase of ileal apparent energy digestibility compared to the control group” value [1, 4] of the same compound?
A: 4.4%

Q: And the “increase of ileal apparent total nitrogen digestibility compared to the control group” value [1, 4]?
A: 5.3%

Q: And the “increase of ileal apparent branched chain amino acids digestibility compared to the control group” value [1, 5]?
A: 2.9%

Q: And the “increase of ileal apparent essential amino acids digestibility compared to the control group” value [1, 5]?
A: 2.9%

Q: And the “increase of ileal apparent lysine digestibility compared to the control group” value [1, 5]?
A: 3.5%

Q: And the “increase of ileal apparent total amino acids digestibility compared to the control group” value [1, 5]?
A: 2.9%

Q: And the “Mean digestibility ± σ, Ala (ileal apparent)” value [1, 6]?
A: 75.3 ± 3.7%

Q: And the “Mean digestibility ± σ, Arg (ileal apparent)” value [1, 6]?
A: 87.0 ± 1.8%

Q: What about the “Mean digestibility ± σ, Asp + Asn (ileal apparent)” value [1, 6] of the same compound?
A: 79.1 ± 3.2%

Q: And the “Mean digestibility ± σ, Cys (ileal apparent)” value [1, 6]?
A: 79.7 ± 4.4%

Q: What about the “Mean digestibility ± σ, Glu + Gln (ileal apparent)” value [1, 6] of the same compound?
A: 86.7 ± 2.1%

Q: And the “Mean digestibility ± σ, Gly (ileal apparent)” value [1, 6]?
A: 75.1 ± 4.4%

Q: What about the “Mean digestibility ± σ, His (ileal apparent)” value [1, 6] of the same compound?
A: 86.4 ± 2.5%

Q: What about the “Mean digestibility ± σ, Hyp (ileal apparent)” value [1, 6] of the same compound?
A: 41.4 ± 13.4%

Q: What about the “Mean digestibility ± σ, Ile (ileal apparent)” value [1, 6] of the same compound?
A: 81.5 ± 3.6%

Q: And the “Mean digestibility ± σ, Leu (ileal apparent)” value [1, 6]?
A: 84.5 ± 2.4%

Q: What about the “Mean digestibility ± σ, Met (ileal apparent)” value [1, 6] of the same compound?
A: 80.7 ± 3.5%

Q: And the “Mean digestibility ± σ, Phe (ileal apparent)” value [1, 6]?
A: 84.5 ± 2.3%

Q: And the “Mean digestibility ± σ, Pro (ileal apparent)” value [1, 6]?
A: 85.8 ± 2.4%

Q: What about the “Mean digestibility ± σ, Ser (ileal apparent)” value [1, 6] of the same compound?
A: 82.6 ± 2.9%

Q: What about the “Mean digestibility ± σ, Tyr (ileal apparent)” value [1, 6] of the same compound?
A: 80.8 ± 2.8%

Q: What about the “Mean digestibility ± σ, Val (ileal apparent)” value [1, 6] of the same compound?
A: 79.5 ± 3.6%

Q: And the “ileal apparent branched chain amino acids digestibility” value [1, 7]?
A: 82.7±2.8%

Q: And the “ileal apparent energy digestibility” value [1, 7]?
A: 72.6±4.7%

Q: And the “ileal apparent essential amino acids digestibility” value [1, 7]?
A: 82.7±2.6%

Q: What about the “ileal apparent sulfured amino acids digestibility” value [1, 7] of the same compound?
A: 80.1±3.5%

Q: What about the “ileal apparent total amino acids digestibility” value [1, 7] of the same compound?
A: 82.0±2.7%

Q: What about the “ileal apparent total nitrogen digestibility” value [1, 7] of the same compound?
A: 77.7±3.1%

Q: And the “ileal apparent lysine digestibility” value [1, 8]?
A: 82.3±2.8%

Q: What about the “ileal apparent threonine digestibility” value [1, 8] of the same compound?
A: 78.0±3.9%

Q: What about the “ileal apparent lysine digestibility” value [1, 9] of the same compound?
A: 82.3 ± 2.8%

Q: And the “ileal apparent threonine digestibility” value [1, 9]?
A: 78.0 ± 3.9%

Q: And the “symptoms of illness or toxicosis” value [2]?
A: None of the animals showed during the experimental period, any symptoms of illness or toxicosis

Source: patent publication US20100160438A1, “NOVEL USE OF A NUTRACEUTICAL COMPOSITION IN ANIMAL FEED” (priority 2006, published 2010)
